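Tested at 5 concentrations; 48 h exposure; 96-well plates; endpoints linearly interpolated, else capped at highest concentration. GI50 is the concentration that inhibits growth by half.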 Activity calls are given as the source filed them. Cut-off read from the data, not from the text of the source: active = GI50 up to about 1.1 µM and inactive = higher.
Columns and labels:
Assay in all cases: NCI-60 cell line screen, 48 h
OVCAR-8 = system: OVCAR-8
SNB-75 = system: SNB-75
SF-539 = system: SF-539
HCT-116 = system: HCT-116
SF-268 = system: SF-268
CCRF-CEM = system: CCRF-CEM
SW-620 = system: SW-620
HOP-62 = system: HOP-62
SK-MEL-5 = system: SK-MEL-5
IGROV-1 = system: IGROV-1
OVCAR-5 = system: OVCAR-5
U-251 = system: U-251
RXF 393 = system: RXF 393
SNB-19 = system: SNB-19
SK-OV-3 = system: SK-OV-3
NCI-H23 = system: NCI-H23
T47D = system: T47D
MDA-MB-231 = system: MDA-MB-231
MDA-N = system: MDA-N

Measured: GI50

C=CCCCN1CCCC(C)C1=S (stereo unspecified)
inactive: OVCAR-8 > 100 µM | SNB-75 52 µM | SF-539 > 100 µM | HCT-116 > 100 µM | SF-268 > 100 µM | CCRF-CEM > 100 µM | SW-620 > 100 µM | HOP-62 > 100 µM | SK-MEL-5 > 100 µM | IGROV-1 > 100 µM | OVCAR-5 > 100 µM | U-251 > 100 µM | RXF 393 > 100 µM | SNB-19 > 100 µM | SK-OV-3 > 100 µM | NCI-H23 > 100 µM

COc1cc2nc(-c3cccs3)nc(Cl)c2cc1OC
inactive: OVCAR-8 > 100 µM | SNB-75 > 100 µM | SF-539 > 100 µM | HCT-116 > 100 µM | SF-268 > 100 µM | SW-620 > 100 µM | HOP-62 > 100 µM | SK-MEL-5 12 µM | T47D > 100 µM | MDA-MB-231 > 100 µM | IGROV-1 > 100 µM | OVCAR-5 > 100 µM | U-251 > 100 µM | SNB-19 > 100 µM | SK-OV-3 > 100 µM | NCI-H23 > 100 µM

Cc1nc(N)c(N2CCN(C#N)CC2)c(O)n1
inactive: OVCAR-8 > 100 µM | SNB-75 > 100 µM | SF-539 > 100 µM | HCT-116 > 100 µM | SF-268 > 100 µM | CCRF-CEM > 100 µM | SW-620 > 100 µM | HOP-62 > 100 µM | MDA-N > 100 µM | T47D > 100 µM | MDA-MB-231 > 100 µM | OVCAR-5 > 100 µM | U-251 > 100 µM | SNB-19 > 100 µM | NCI-H23 > 100 µM

O=[N+]([O-])c1ccc2c(c1)OCCOCCOc1ccc([N+](=O)[O-])cc1OCCOCCO2
inactive: OVCAR-8 > 100 µM | SNB-75 > 100 µM | SF-539 > 100 µM | HCT-116 > 100 µM | SF-268 > 100 µM | CCRF-CEM > 100 µM | SW-620 > 100 µM | HOP-62 > 100 µM | SK-MEL-5 > 100 µM | IGROV-1 > 100 µM | OVCAR-5 > 100 µM | U-251 > 100 µM | RXF 393 > 100 µM | SNB-19 > 100 µM | SK-OV-3 > 100 µM | NCI-H23 > 100 µM

CC1(C)O[C@@H](CBr)C[C@H](C[C@H]2C[C@@H](O)C[C@@H](CCOCc3ccccc3)O2)O1
inactive: OVCAR-8 21.5 µM | SNB-75 20.5 µM | HCT-116 21.3 µM | SF-268 22 µM | CCRF-CEM 47.3 µM | SW-620 31.6 µM | HOP-62 20.1 µM | SK-MEL-5 30.3 µM | T47D 14.9 µM | MDA-MB-231 40.3 µM | IGROV-1 19.8 µM | OVCAR-5 18.7 µM | U-251 31.8 µM | SNB-19 25.5 µM | SK-OV-3 18.1 µM | NCI-H23 16.3 µM

O=C1NC(=S)N/C1=C/c1c(-c2ccccc2)[nH]c2ccccc12
inactive: OVCAR-8 14.4 µM | SNB-75 15.3 µM | SF-539 17.4 µM | HCT-116 14.3 µM | SF-268 25.7 µM | SW-620 17.1 µM | HOP-62 15.5 µM | SK-MEL-5 13 µM | MDA-N 14.9 µM | MDA-MB-231 13.7 µM | IGROV-1 13.8 µM | OVCAR-5 17.9 µM | U-251 15.7 µM | RXF 393 15.3 µM | SNB-19 16.5 µM | NCI-H23 14.1 µM

Cc1ccc(O)c(-c2csc(NCN3CCN(CNc4nc(-c5cc(C)ccc5O)cs4)CC3)n2)c1
inactive: OVCAR-8 > 100 µM | SNB-75 > 100 µM | SF-539 > 100 µM | HCT-116 > 100 µM | SF-268 > 100 µM | CCRF-CEM 20.5 µM | SW-620 77.3 µM | HOP-62 > 100 µM | SK-MEL-5 > 100 µM | MDA-N > 100 µM | MDA-MB-231 > 100 µM | IGROV-1 > 100 µM | OVCAR-5 > 100 µM | U-251 > 100 µM | RXF 393 > 100 µM | SNB-19 > 100 µM | SK-OV-3 > 100 µM | NCI-H23 > 100 µM

Cc1cc2c(cc1Cl)SC(NS(=O)(=O)c1ccc(Cl)cc1)=NS2(=O)=O
inactive: SNB-75 35.2 µM | SF-539 18.3 µM | HCT-116 35.4 µM | SF-268 85.9 µM | CCRF-CEM 56.8 µM | SW-620 41.6 µM | HOP-62 98.6 µM | SK-MEL-5 46 µM | T47D > 100 µM | MDA-MB-231 67.6 µM | IGROV-1 89.5 µM | OVCAR-5 35.4 µM | U-251 > 100 µM | RXF 393 13.6 µM | SNB-19 65.6 µM | SK-OV-3 > 100 µM | NCI-H23 30.5 µM

CC(=O)N1c2ccccc2C2=NN=C(N(C)C)SC21 (stereo unspecified)
inactive: OVCAR-8 2.65 µM | SNB-75 13.6 µM | SF-539 3.48 µM | HCT-116 2.72 µM | SF-268 1.82 µM | CCRF-CEM 2.1 µM | SW-620 4.78 µM | HOP-62 3.8 µM | MDA-N 3.33 µM | T47D 3.52 µM | MDA-MB-231 1.89 µM | OVCAR-5 4.24 µM | U-251 1.67 µM | SNB-19 3.85 µM | NCI-H23 5.19 µM

COC(=O)C1=CC2C(=O)c3ccccc3C1(c1ccccc1)N2C1CCCCC1 (stereo unspecified)
inactive: OVCAR-8 27 µM | SNB-75 35.1 µM | SF-539 20.6 µM | HCT-116 25.1 µM | SF-268 27.2 µM | CCRF-CEM 15.1 µM | SW-620 27.2 µM | HOP-62 16.7 µM | SK-MEL-5 10.1 µM | MDA-N 23.7 µM | MDA-MB-231 17 µM | IGROV-1 20.1 µM | OVCAR-5 32.3 µM | U-251 16.6 µM | RXF 393 7.87 µM | SNB-19 39.9 µM | SK-OV-3 31 µM | NCI-H23 18.7 µM

O/N=C(/C(Cl)=C(Cl)Cl)C(Cl)Cl
inactive: OVCAR-8 23.9 µM | SNB-75 19 µM | SF-539 21.5 µM | HCT-116 17.9 µM | SF-268 17 µM | CCRF-CEM 12.4 µM | SW-620 20.4 µM | HOP-62 23.3 µM | SK-MEL-5 19.5 µM | MDA-N 17 µM | MDA-MB-231 19.2 µM | IGROV-1 20.4 µM | OVCAR-5 25.9 µM | U-251 19.5 µM | RXF 393 16.3 µM | SNB-19 31.5 µM | SK-OV-3 28.8 µM | NCI-H23 14.9 µM

COc1cc(CNc2nc3cc(C(F)(F)F)ccc3nc2C(=O)O)cc(OC)c1OC
inactive: OVCAR-8 34.4 µM | SNB-75 19.9 µM | SF-539 15.2 µM | HCT-116 15.6 µM | SF-268 27.7 µM | SW-620 31.6 µM | HOP-62 18.5 µM | MDA-N 21.5 µM | T47D 21.1 µM | OVCAR-5 49.3 µM | U-251 15.7 µM | RXF 393 23.8 µM | SNB-19 21.6 µM | SK-OV-3 28.4 µM | NCI-H23 33.8 µM

Clc1ccc(C(Cc2cccc(Cl)c2)c2c(Cl)nc(N3CCNCC3)nc2Cl)cc1 (stereo unspecified)
inactive: OVCAR-8 19.1 µM | SNB-75 13.3 µM | SF-539 19.5 µM | HCT-116 13.2 µM | CCRF-CEM 15.3 µM | SW-620 16.5 µM | HOP-62 15.4 µM | SK-MEL-5 16.1 µM | MDA-N 16.1 µM | T47D 16.4 µM | MDA-MB-231 13.5 µM | IGROV-1 69.2 µM | OVCAR-5 12.5 µM | U-251 16.4 µM | SNB-19 16.9 µM | SK-OV-3 13.7 µM | NCI-H23 19 µM

CCOC(=O)CCC(NC(=O)c1ccc(Nc2nc3cc(C(F)(F)F)ccc3nc2-c2ccccc2)cc1)C(=O)OCC (stereo unspecified)
inactive: OVCAR-8 20.6 µM | SNB-75 15.2 µM | SF-539 31.3 µM | HCT-116 26.4 µM | SF-268 22.3 µM | CCRF-CEM 27.8 µM | SW-620 30.5 µM | HOP-62 > 100 µM | SK-MEL-5 18.6 µM | T47D 16.4 µM | MDA-MB-231 20.3 µM | IGROV-1 14.7 µM | OVCAR-5 > 100 µM | U-251 25.3 µM | RXF 393 > 100 µM | SNB-19 21.5 µM | SK-OV-3 30.5 µM | NCI-H23 20.7 µM

Cc1nc(Nc2ccc([N+](=O)[O-])cc2)sc1C(=O)/C=C/c1ccc(N(C)C)cc1
inactive: OVCAR-8 73.3 µM | SNB-75 > 100 µM | SF-539 88.9 µM | SF-268 > 100 µM | CCRF-CEM 60.1 µM | SW-620 > 100 µM | HOP-62 > 100 µM | SK-MEL-5 50.5 µM | IGROV-1 > 100 µM | OVCAR-5 > 100 µM | U-251 > 100 µM | RXF 393 30.4 µM | SNB-19 > 100 µM | SK-OV-3 > 100 µM | NCI-H23 > 100 µM

Cc1cc(Br)c(O)c(-c2cscn2)c1
inactive: OVCAR-8 10.9 µM | SF-539 20 µM | HCT-116 12.6 µM | CCRF-CEM 6.55 µM | SW-620 12.3 µM | HOP-62 22.5 µM | SK-MEL-5 16.8 µM | IGROV-1 22.9 µM | OVCAR-5 20.6 µM | SNB-19 15.2 µM | SK-OV-3 54.6 µM | NCI-H23 14.4 µM

O=C(O)Cn1ccc(=O)c2ccc([N+](=O)[O-])cc21
inactive: OVCAR-8 > 100 µM | SNB-75 38.4 µM | SF-539 > 100 µM | HCT-116 > 100 µM | SF-268 > 100 µM | CCRF-CEM > 100 µM | SW-620 > 100 µM | HOP-62 > 100 µM | SK-MEL-5 > 100 µM | MDA-N > 100 µM | T47D > 100 µM | MDA-MB-231 28.8 µM | IGROV-1 > 100 µM | OVCAR-5 > 100 µM | U-251 > 100 µM | SNB-19 > 100 µM | SK-OV-3 > 100 µM | NCI-H23 > 100 µM

Reference: ChEMBL document CHEMBL1201862, “PubChem BioAssay data set” (2004)
